Reference: publication PMC12335474 (Communications Biology, 2025)

Assays:
[1] = target: MLCK (myosin light chain kinase, smooth muscle) (Homo sapiens, UniProt Q15746); assay: SPR; assay type: binding
[2] = target: MLCK (myosin light chain kinase, smooth muscle) (Homo sapiens, UniProt Q15746, N1725A); assay: SPR; assay type: binding
Chain of MLCK (myosin light chain kinase, smooth muscle) (Homo sapiens, UniProt Q15746, N1725A) (Q15746 923-1914 N1725A): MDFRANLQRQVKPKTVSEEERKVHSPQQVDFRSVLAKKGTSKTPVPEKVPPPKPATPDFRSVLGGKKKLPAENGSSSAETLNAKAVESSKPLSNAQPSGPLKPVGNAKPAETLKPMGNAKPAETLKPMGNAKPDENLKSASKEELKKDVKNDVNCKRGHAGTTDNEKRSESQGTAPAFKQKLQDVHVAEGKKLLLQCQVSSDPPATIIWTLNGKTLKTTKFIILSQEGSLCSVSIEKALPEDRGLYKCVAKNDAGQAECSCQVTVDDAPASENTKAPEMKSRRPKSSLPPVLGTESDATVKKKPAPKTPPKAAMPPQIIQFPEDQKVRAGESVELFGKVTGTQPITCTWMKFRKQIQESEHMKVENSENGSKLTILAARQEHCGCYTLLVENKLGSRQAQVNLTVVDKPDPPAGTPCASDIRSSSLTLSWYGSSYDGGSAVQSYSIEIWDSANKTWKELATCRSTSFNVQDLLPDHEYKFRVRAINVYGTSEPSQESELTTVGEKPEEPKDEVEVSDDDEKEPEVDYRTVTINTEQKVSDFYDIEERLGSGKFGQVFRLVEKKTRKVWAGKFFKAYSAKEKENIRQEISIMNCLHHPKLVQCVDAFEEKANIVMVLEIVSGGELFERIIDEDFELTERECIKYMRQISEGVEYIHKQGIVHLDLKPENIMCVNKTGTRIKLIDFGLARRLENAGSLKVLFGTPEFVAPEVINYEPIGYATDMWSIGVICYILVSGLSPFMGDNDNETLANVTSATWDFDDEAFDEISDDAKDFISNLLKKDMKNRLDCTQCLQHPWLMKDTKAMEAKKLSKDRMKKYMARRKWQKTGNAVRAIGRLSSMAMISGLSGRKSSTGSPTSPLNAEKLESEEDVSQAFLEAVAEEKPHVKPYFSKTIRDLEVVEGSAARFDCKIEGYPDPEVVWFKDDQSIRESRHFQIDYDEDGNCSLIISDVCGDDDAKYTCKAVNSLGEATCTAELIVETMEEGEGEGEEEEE

Chain of MLCK (myosin light chain kinase, smooth muscle) (Homo sapiens, UniProt Q15746) (Q15746 whole entry): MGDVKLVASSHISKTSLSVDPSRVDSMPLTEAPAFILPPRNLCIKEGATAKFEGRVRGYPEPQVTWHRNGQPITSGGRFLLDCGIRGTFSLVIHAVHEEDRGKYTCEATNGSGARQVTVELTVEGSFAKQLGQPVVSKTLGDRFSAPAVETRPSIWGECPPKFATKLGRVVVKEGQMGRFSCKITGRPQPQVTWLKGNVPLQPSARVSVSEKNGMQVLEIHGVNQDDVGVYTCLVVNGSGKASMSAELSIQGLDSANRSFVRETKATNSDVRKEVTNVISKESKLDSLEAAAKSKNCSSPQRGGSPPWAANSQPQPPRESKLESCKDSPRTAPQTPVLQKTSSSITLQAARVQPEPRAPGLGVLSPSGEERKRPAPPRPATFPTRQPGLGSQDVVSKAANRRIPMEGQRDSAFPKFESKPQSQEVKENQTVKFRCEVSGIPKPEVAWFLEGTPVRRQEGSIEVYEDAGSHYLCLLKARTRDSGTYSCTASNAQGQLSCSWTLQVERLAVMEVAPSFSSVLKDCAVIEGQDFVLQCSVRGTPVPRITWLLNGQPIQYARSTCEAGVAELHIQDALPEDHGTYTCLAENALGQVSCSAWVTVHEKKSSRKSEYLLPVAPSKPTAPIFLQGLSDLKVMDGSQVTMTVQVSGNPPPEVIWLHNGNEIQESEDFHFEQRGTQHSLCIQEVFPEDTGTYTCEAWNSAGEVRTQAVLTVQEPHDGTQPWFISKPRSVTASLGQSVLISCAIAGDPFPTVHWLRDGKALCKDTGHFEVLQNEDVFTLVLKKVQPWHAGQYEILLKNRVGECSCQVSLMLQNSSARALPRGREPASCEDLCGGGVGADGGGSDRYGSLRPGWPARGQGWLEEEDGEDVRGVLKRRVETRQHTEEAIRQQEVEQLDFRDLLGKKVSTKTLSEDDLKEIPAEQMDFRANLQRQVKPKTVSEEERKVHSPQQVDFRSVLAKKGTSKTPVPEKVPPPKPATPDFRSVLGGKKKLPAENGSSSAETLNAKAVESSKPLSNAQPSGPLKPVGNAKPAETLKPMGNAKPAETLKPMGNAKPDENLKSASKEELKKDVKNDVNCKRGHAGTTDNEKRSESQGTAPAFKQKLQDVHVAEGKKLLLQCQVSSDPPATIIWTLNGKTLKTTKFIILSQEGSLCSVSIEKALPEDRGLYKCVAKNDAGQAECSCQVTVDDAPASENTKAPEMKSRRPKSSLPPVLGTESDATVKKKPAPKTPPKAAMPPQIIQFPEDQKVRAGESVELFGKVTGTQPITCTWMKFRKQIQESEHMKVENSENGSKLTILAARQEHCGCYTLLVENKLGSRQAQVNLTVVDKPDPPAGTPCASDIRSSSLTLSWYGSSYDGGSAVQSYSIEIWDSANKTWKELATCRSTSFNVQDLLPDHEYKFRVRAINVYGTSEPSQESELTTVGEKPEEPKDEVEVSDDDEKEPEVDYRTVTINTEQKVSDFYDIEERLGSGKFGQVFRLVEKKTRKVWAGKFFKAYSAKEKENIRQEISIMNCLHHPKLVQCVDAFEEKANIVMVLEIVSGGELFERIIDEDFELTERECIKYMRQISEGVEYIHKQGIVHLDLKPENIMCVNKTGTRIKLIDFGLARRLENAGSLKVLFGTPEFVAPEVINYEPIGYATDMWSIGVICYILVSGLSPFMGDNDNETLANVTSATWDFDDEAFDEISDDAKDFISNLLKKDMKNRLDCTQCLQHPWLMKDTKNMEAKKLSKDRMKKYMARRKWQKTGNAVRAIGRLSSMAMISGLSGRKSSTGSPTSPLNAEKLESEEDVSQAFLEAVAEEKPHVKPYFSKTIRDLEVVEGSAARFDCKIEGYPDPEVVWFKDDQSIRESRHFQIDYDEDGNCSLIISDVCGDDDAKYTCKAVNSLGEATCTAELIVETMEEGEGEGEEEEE

**Q.** With `O=c1[nH]c(=O)c2[nH]c(=O)[nH]c2[nH]1` [UA, uric acid] as the molecule, how does the Kd [1] read?
**A.** Its Kd is 257 µM.

**Q.** And the Kd [2]?
**A.** Its Kd is 312 µM.
